Measurements reported in the supplement of paper PMC10627819.

Key:
S. pneumoniae D39V [1] = assay: Bliss interaction score (quartile over a dose matrix) (fitness difference); higher = more antagonism (negative = synergy)
Procedure, shortened: (§1)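 Fitness was derived from optical density at entry into stationary phase, divided by the robust mean of the no-drug wells on the same plate. That reading was taken as OD595, and the ratio was capped at 1. Single-drug fitness was inferred from the combination data. The Bliss score, observed fitness minus the expected product of single-drug fitness, was summarised as quartiles over technical, biological and donor/recipient replicates.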

B. subtilis 168 [2] = assay: as above
Procedure, shortened: as §1

S. aureus DSM 20231 [3] = assay: as above
Procedure, shortened: as §1

S. aureus Newman [4] = assay: as above
Procedure, shortened: as §1

S. pneumoniae D39V [5] = assay: fitness (endpoint OD595 vs no drug) (fraction); higher = more growth
Procedure, shortened: (§2)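 Volumes were 30 µl per well, or 55 µl for S. pneumoniae, in 384-well plates inoculated at OD595 0.01. Media were TSB, LB Lennox or CY at 37 °C, and OD595 was read every 30 min for 14 h with first-reading background subtraction. Fitness is the ratio of optical density at stationary-phase entry to the robust mean of no-drug controls. That ratio is capped at 1.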

B. subtilis 168 [6] = assay: as above
Procedure, shortened: as §2

S. aureus DSM 20231 [7] = assay: as above
Procedure, shortened: as §2

S. aureus Newman [8] = assay: as above
Procedure, shortened: as §2
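Throughout, for Bliss interaction score (quartile over a dose matrix): first quartile when negative (synergy) and third quartile when positive (antagonism).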

CCC[C@@H]1C[C@@H](C(=O)N[C@@H]([C@H]2O[C@H](SC)[C@H](O)[C@@H](O)[C@H]2O)[C@H](C)Cl)N(C)C1 [Clindamycin] + CN[C@@H]1[C@H](O)[C@H](NC)[C@H]2O[C@@]3(O)C(=O)C[C@@H](C)O[C@H]3O[C@@H]2[C@H]1O [Spectinomycin]
Conditions	Bliss interaction score
B. subtilis 168 [2]	-0.0853
S. aureus DSM 20231 [3]	-0.0511
S. aureus Newman [4]	-0.147
S. pneumoniae D39V [1]	0.0544

fitness
Conditions	partner 2 µg/mL	partner 4 µg/mL	partner 8 µg/mL	partner 16 µg/mL
B. subtilis 168 [6], first compound 0.0625 µg/mL	0.508	0.46	0.383	–
B. subtilis 168 [6], first compound 0.125 µg/mL	0.37	0.365	0.251	–
B. subtilis 168 [6], first compound 0.25 µg/mL	0.363	0.327	0.155	–
S. aureus DSM 20231 [7], first compound 0.125 µg/mL	–	0.0615	0.0809	0.0399
S. aureus Newman [8], first compound 0.0312 µg/mL	–	0.564	0.579	0.466
S. aureus Newman [8], first compound 0.125 µg/mL	–	0.0748	0.109	0.0841
S. pneumoniae D39V [5], first compound 0.0125 µg/mL	–	0.672	0.656	0.601
S. pneumoniae D39V [5], first compound 0.025 µg/mL	–	0.457	0.409	0.396
S. pneumoniae D39V [5], first compound 0.05 µg/mL	–	0.248	0.231	0.19

one replicate
Conditions	fitness
B. subtilis 168 [6], first compound 0.0039 µg/mL, partner 2 µg/mL	0.988
B. subtilis 168 [6], first compound 0.0039 µg/mL, partner 4 µg/mL	0.98
B. subtilis 168 [6], first compound 0.0039 µg/mL, partner 8 µg/mL	≥ 1
B. subtilis 168 [6], first compound 0.0078 µg/mL, partner 2 µg/mL	0.897
B. subtilis 168 [6], first compound 0.0078 µg/mL, partner 4 µg/mL	0.898
B. subtilis 168 [6], first compound 0.0078 µg/mL, partner 8 µg/mL	0.904
B. subtilis 168 [6], first compound 0.0156 µg/mL, partner 2 µg/mL	0.904
B. subtilis 168 [6], first compound 0.0156 µg/mL, partner 4 µg/mL	0.903
B. subtilis 168 [6], first compound 0.0156 µg/mL, partner 8 µg/mL	0.851
S. aureus DSM 20231 [7], first compound 0.0312 µg/mL, partner 32 µg/mL	0.105
S. aureus DSM 20231 [7], first compound 0.0312 µg/mL, partner 64 µg/mL	0.0235
S. aureus DSM 20231 [7], first compound 0.0625 µg/mL, partner 32 µg/mL	0.0623
S. aureus DSM 20231 [7], first compound 0.0625 µg/mL, partner 64 µg/mL	0.0291
S. aureus DSM 20231 [7], first compound 0.125 µg/mL, partner 32 µg/mL	0.0592
S. aureus DSM 20231 [7], first compound 0.125 µg/mL, partner 64 µg/mL	0.0326
S. aureus Newman [8], first compound 0.0312 µg/mL, partner 32 µg/mL	0.0927
S. aureus Newman [8], first compound 0.0312 µg/mL, partner 64 µg/mL	0.0581
S. aureus Newman [8], first compound 0.0625 µg/mL, partner 32 µg/mL	0.0269
S. aureus Newman [8], first compound 0.0625 µg/mL, partner 64 µg/mL	0.0621
S. aureus Newman [8], first compound 0.125 µg/mL, partner 32 µg/mL	0.0191
S. aureus Newman [8], first compound 0.125 µg/mL, partner 64 µg/mL	0.0457
S. pneumoniae D39V [5], first compound 0.015 µg/mL, partner 4 µg/mL	0.935
S. pneumoniae D39V [5], first compound 0.015 µg/mL, partner 8 µg/mL	0.899
S. pneumoniae D39V [5], first compound 0.03 µg/mL, partner 4 µg/mL	0.765
S. pneumoniae D39V [5], first compound 0.03 µg/mL, partner 8 µg/mL	0.754
S. pneumoniae D39V [5], first compound 0.06 µg/mL, partner 4 µg/mL	0.657
S. pneumoniae D39V [5], first compound 0.06 µg/mL, partner 8 µg/mL	0.671

COc1c(N2C[C@@H]3CCCN[C@@H]3C2)c(F)cc2c(=O)c(C(=O)O)cn(C3CC3)c12 [Moxifloxacin] + C[n+]1ccc(-c2cc[n+](C)cc2)cc1 [Paraquat]
Conditions	Bliss interaction score
B. subtilis 168 [2]	0.0133
S. aureus DSM 20231 [3]	-0.0639
S. aureus Newman [4]	-0.0625
S. pneumoniae D39V [1]	-0.0615

fitness, one replicate
Conditions	partner 1.25 µg/mL	partner 1.5 µg/mL	partner 2.5 µg/mL	partner 3 µg/mL	partner 5 µg/mL	partner 6 µg/mL
S. aureus DSM 20231 [7], first compound 0.06 µg/mL	0.684	–	0.7	–	0.699	–
S. aureus DSM 20231 [7], first compound 0.12 µg/mL	0.456	–	0.456	–	0.451	–
S. pneumoniae D39V [5], first compound 0.0037 µg/mL	–	0.906	–	0.857	–	0.896
S. pneumoniae D39V [5], first compound 0.0075 µg/mL	–	0.878	–	0.852	–	0.868
S. pneumoniae D39V [5], first compound 0.015 µg/mL	–	0.886	–	0.866	–	0.868

fitness
Conditions	partner 1.25 µg/mL	partner 1.5 µg/mL	partner 2.5 µg/mL	partner 3 µg/mL	partner 5 µg/mL	partner 6 µg/mL
B. subtilis 168 [6], first compound 0.0312 µg/mL	0.0599	–	0.0539	–	0.0449	–
B. subtilis 168 [6], first compound 0.0625 µg/mL	0.044	–	0.0467	–	0.0504	–
B. subtilis 168 [6], first compound 0.125 µg/mL	0.0395	–	0.0537	–	0.0512	–
B. subtilis 168 [6], first compound 2 µg/mL	0.0316	–	0.0333	–	0.0436	–
B. subtilis 168 [6], first compound 4 µg/mL	0.0442	–	0.039	–	0.0413	–
B. subtilis 168 [6], first compound 8 µg/mL	0.0139	–	0.0174	–	0.0265	–
S. aureus DSM 20231 [7], first compound 0.0075 µg/mL	0.818	–	0.831	–	0.824	–
S. aureus DSM 20231 [7], first compound 0.015 µg/mL	0.748	–	0.712	–	0.774	–
S. aureus DSM 20231 [7], first compound 0.03 µg/mL	0.647	–	0.632	–	0.634	–
S. aureus Newman [8], first compound 0.0075 µg/mL	0.706	–	0.73	–	0.727	–
S. aureus Newman [8], first compound 0.015 µg/mL	0.583	–	0.565	–	0.554	–
S. aureus Newman [8], first compound 0.03 µg/mL	0.0423	–	0.0559	–	0.0929	–
S. pneumoniae D39V [5], first compound 0.005 µg/mL	–	0.979	–	0.994	–	0.969
S. pneumoniae D39V [5], first compound 0.01 µg/mL	–	0.966	–	0.957	–	0.939
S. pneumoniae D39V [5], first compound 0.02 µg/mL	–	0.947	–	0.927	–	0.893

CCC[C@@H]1C[C@@H](C(=O)N[C@@H]([C@H]2O[C@H](SC)[C@H](O)[C@@H](O)[C@H]2O)[C@H](C)Cl)N(C)C1 [Clindamycin] + CCN(CC)CCOC(=O)c1ccc(N)cc1 [Procaine]
Conditions	Bliss interaction score
B. subtilis 168 [2]	-0.067
S. aureus DSM 20231 [3]	-0.0363
S. aureus Newman [4]	0.0552
S. pneumoniae D39V [1]	-0.11

fitness
Conditions	partner 85.5 µg/mL	partner 171 µg/mL	partner 342 µg/mL
B. subtilis 168 [6], first compound 0.0625 µg/mL	0.504	0.483	0.506
B. subtilis 168 [6], first compound 0.125 µg/mL	0.363	0.362	0.367
B. subtilis 168 [6], first compound 0.25 µg/mL	0.344	0.335	0.339
S. aureus DSM 20231 [7], first compound 0.0625 µg/mL	0.196	–	–
S. aureus DSM 20231 [7], first compound 0.125 µg/mL	0.0583	0.0591	0.0589
S. aureus Newman [8], first compound 0.0312 µg/mL	0.706	–	–
S. pneumoniae D39V [5], first compound 0.0125 µg/mL	0.772	0.723	0.746
S. pneumoniae D39V [5], first compound 0.025 µg/mL	0.517	0.472	0.466
S. pneumoniae D39V [5], first compound 0.05 µg/mL	0.205	0.186	0.19

fitness, one replicate
Conditions	first compound 0.0039 µg/mL	first compound 0.0078 µg/mL	first compound 0.015 µg/mL	first compound 0.0156 µg/mL	first compound 0.03 µg/mL	first compound 0.06 µg/mL
B. subtilis 168 [6], partner 85.5 µg/mL	0.941	0.866	–	0.798	–	–
B. subtilis 168 [6], partner 171 µg/mL	0.931	0.838	–	0.814	–	–
B. subtilis 168 [6], partner 342 µg/mL	0.931	0.788	–	0.856	–	–
S. pneumoniae D39V [5], partner 85.5 µg/mL	–	–	0.916	–	0.713	0.349
S. pneumoniae D39V [5], partner 171 µg/mL	–	–	0.956	–	0.766	0.513
S. pneumoniae D39V [5], partner 342 µg/mL	–	–	0.806	–	0.716	0.373

CCC[C@@H]1C[C@@H](C(=O)N[C@@H]([C@H]2O[C@H](SC)[C@H](O)[C@@H](O)[C@H]2O)[C@H](C)Cl)N(C)C1 [Clindamycin] + COc1cccc2c1C(=O)c1c(O)c3c(c(O)c1C2=O)C[C@@](O)(C(=O)CO)C[C@@H]3O[C@H]1C[C@H](N)[C@H](O)[C@H](C)O1 [Doxorubicin]
Conditions	Bliss interaction score
B. subtilis 168 [2]	0.0474
S. aureus DSM 20231 [3]	0.075
S. aureus Newman [4]	0.168
S. pneumoniae D39V [1]	-0.0723

fitness
Conditions	partner 0.25 µg/mL	partner 0.5 µg/mL	partner 0.625 µg/mL	partner 1 µg/mL	partner 1.25 µg/mL	partner 2.5 µg/mL
B. subtilis 168 [6], first compound 0.0625 µg/mL	–	–	0.496	–	0.482	0.394
B. subtilis 168 [6], first compound 0.125 µg/mL	–	–	0.363	–	0.408	0.3
B. subtilis 168 [6], first compound 0.25 µg/mL	–	–	0.347	–	0.364	0.214
S. aureus DSM 20231 [7], first compound 0.125 µg/mL	–	–	0.0581	–	0.0433	0.0502
S. aureus Newman [8], first compound 0.0312 µg/mL	–	–	0.641	–	0.684	0.666
S. aureus Newman [8], first compound 0.125 µg/mL	–	–	0.202	–	0.204	0.136
S. pneumoniae D39V [5], first compound 0.0125 µg/mL	0.671	0.697	–	0.759	–	–
S. pneumoniae D39V [5], first compound 0.015 µg/mL	0.751	0.746	–	0.649	–	–
S. pneumoniae D39V [5], first compound 0.025 µg/mL	0.41	0.375	–	0.439	–	–
S. pneumoniae D39V [5], first compound 0.03 µg/mL	0.588	0.576	–	0.495	–	–
S. pneumoniae D39V [5], first compound 0.05 µg/mL	0.115	0.104	–	0.131	–	–
S. pneumoniae D39V [5], first compound 0.06 µg/mL	0.299	0.288	–	0.256	–	–

fitness, B. subtilis 168 [6], one replicate
Conditions	first compound 0.0039 µg/mL	first compound 0.0078 µg/mL	first compound 0.0156 µg/mL
partner 0.625 µg/mL	0.952	0.832	0.818
partner 1.25 µg/mL	≥ 1	0.858	0.793
partner 2.5 µg/mL	≥ 1	0.851	0.852
